Data set [1] in a line: Thermogravimetric analysis (TGA) of the crystalline form. It is filed as physicochemical. As to conditions: heated at 10° C./minute from ambient (~25° C.) to about 315° C., open platinum pans. The protocol: Thermogravimetric analysis (TGA) data for the crystalline form of the compound of formula (V) were collected using a TA Discovery 550 TGA instrument. The TGA instrument was calibrated using a nickel reference standard. Samples of the crystalline form of the compound of formula (V) were placed in open platinum sample pans and heated at a rate of 10° C./minute from about ambient temperature (˜25° C.) to about 315° C.

The nature of data set [2]: Dynamic vapor sorption (water sorption) of the crystalline form. As to conditions: relative humidity of 80%, temperature of 25° C., isotherm in FIG. 6. It is filed as physicochemical. The protocol:
The crystalline form of the compound of formula (V) may also be characterized according to its water sorption properties. […] In certain embodiments, the crystalline form of the compound of formula (V) has a water sorption isotherm, when measured at 25° C., substantially the same as shown in FIG. 6.

Take `CC(C)(CCCCCC(O)CCCCCC(C)(C)C(=O)O)C(=O)O` [compound of formula (V), 8-hydroxy-2,2,14,14-tetramethylpentadecanedioic acid]: the “weight loss in TGA curve” value in data set [1] is “negligible weight loss prior to decomposition”. Also, the “change in mass, as determined by dynamic vapor sorption” value in data set [2] is given as “about 0.03%”.

(Values after patent US11926584B2, “Methods of making bempedoic acid and compositions of the same” (Esperion Therapeutics, Inc., priority 2019, dated 2024).)
